biological target: T1, CFTR channel in human colonic T84 cells (Homo sapiens, UniProt P13569); test: T84 assay (FLIPR membrane potential dye, forskolin/IBMX-stimulated CFTR); assay type: cell-based; conditions: average of at least 2 runs unless annotated n = 1
T1 construct: results in the phosphorylation and opening of CFTR anion channels; host or cells: human colonic T84 cells
Procedure: (§1) For example, Human colonic T84 cells can be acquired from the European Collection of Cell Cultures (ECACC) and grown in standard culture conditions as described by the supplier. On the day before assay 25,000 T84 cells per well are plated into standard black walled, clear bottom 384-well assay plates in standard growth medium consisting of DMEM:F12 with 10% FBS and incubated overnight. On the day of the assay the plates are washed using a standard assay buffer (HBSS with 10 mM Hepes) and incubated for 15 minutes in serum free cell culture medium before the addition of a commercially available membrane potential sensitive fluorescent dye (FLIPR Red membrane potential dye, Molecular Devices Corporation). T84 cells are incubated with the FLIPR Red membrane potential dye for 45 minutes in the presence and absence of test compound before being transferred to a commercially available fluorescence imaging plate reader (FLIPR384, Molecular Devices Corporation). Fluorescence levels are monitored continuously every second for 150 seconds; after an initial 10 second baseline, CFTR channel activity is stimulated through the addition of 10 μM forskolin in the presence of 100 μM of the phosphodiesterase inhibitor iso-butyl-methylxanthine (IBMX). Addition of the forskolin leads to the activation of intracellular adenylyl cylase 1, elevating cAMP levels and results in the phosphorylation and opening of CFTR anion channels. CFTR channel opening causes chloride ion efflux and subsequent depolarization of the cells, which is measured by an increase in fluorescence. CFTR inhibitor compounds prevent cell depolarization and the associated increase in fluorescence.
as §1, with “Human colonic” for “For example, Human colonic”, “T84 cells are acquired from” for “T84 cells can be acquired from”, “(ECACC) and are grown in” for “(ECACC) and grown in”

T1 sequence (P13569 whole entry): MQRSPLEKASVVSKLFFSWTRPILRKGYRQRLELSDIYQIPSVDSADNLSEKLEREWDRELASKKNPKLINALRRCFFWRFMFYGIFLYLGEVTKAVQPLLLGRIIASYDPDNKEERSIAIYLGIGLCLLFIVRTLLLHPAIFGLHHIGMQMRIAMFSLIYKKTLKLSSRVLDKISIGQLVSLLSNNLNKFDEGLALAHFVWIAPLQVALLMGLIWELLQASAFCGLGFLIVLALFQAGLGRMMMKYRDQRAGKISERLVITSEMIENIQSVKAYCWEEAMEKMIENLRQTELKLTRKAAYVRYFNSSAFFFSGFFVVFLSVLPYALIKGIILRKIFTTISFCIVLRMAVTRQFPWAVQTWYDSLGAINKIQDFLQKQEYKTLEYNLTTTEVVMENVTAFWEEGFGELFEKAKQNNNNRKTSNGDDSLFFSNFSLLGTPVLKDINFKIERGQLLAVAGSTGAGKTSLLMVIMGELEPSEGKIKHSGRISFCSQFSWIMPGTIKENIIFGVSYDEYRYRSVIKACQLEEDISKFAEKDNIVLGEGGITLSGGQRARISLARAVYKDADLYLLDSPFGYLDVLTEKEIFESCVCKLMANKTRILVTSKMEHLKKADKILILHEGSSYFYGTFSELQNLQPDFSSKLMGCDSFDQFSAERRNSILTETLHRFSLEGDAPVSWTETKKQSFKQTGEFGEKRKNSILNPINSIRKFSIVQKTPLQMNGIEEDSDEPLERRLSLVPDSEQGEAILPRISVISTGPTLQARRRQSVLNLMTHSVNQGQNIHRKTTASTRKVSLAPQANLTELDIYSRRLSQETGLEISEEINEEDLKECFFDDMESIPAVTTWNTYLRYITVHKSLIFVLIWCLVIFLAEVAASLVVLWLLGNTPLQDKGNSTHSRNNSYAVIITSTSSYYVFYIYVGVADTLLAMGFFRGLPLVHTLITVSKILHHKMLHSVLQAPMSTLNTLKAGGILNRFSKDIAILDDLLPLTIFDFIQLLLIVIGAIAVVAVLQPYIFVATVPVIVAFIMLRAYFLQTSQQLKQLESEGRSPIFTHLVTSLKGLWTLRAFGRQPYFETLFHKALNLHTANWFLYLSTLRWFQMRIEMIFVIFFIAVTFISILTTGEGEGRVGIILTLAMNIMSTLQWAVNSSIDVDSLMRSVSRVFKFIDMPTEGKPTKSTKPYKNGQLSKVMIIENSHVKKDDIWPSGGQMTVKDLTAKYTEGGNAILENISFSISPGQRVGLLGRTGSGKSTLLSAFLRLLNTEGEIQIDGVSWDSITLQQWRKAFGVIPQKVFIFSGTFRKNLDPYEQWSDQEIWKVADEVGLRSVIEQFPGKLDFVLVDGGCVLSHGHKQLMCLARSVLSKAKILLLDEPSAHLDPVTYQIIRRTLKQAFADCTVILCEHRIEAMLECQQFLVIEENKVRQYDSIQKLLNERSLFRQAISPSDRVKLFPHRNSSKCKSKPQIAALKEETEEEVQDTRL

SMILES | IC50 [µM]
Oc1c(Br)cc(-c2cnc(OC3c4ccccc4Oc4ccccc43)nn2)cc1Br [Compound 91, 4-(3-(9H-xanthen-9-yloxy)-1,2,4-triazin-6-yl)-2,6-dibromophenol] | 4.09
CC(C)(C)OC(=O)N1CCN(Cc2cc(Cl)ccc2OCc2ncc(-c3cc(Br)c(O)c(Br)c3)nn2)CC1 [Compound 92, tert-butyl 4-(5-chloro-2-((6-(3,5-dibromo-4-hydroxyphenyl)-1,2,4-triazin-3-yl)methoxy)benzyl)piperazine-1-carboxylate] | 4.56
Oc1c(Br)cc(-c2cnc(OCCc3ccccc3)nn2)cc1Br [Compound 96, 2,6-dibromo-4-(3-phenethoxy-1,2,4-triazin-6-yl)phenol] | 0.47
Oc1c(Br)cc(-c2cnc(C(O)(c3ccc(Cl)cc3)c3ccc(Cl)cc3)nn2)cc1Br [Compound 100, 4-(3-(bis(4-chlorophenyl)(hydroxy)methyl)-1,2,4-triazin-6-yl)-2,6-dibromophenol] | 7.77
Oc1c(Br)cc(-c2cnc(OCc3ccccn3)nn2)cc1Br [Compound 104, 2,6-dibromo-4-(3-(pyridin-2-ylmethoxy)-1,2,4-triazin-6-yl)phenol] | 16
Oc1c(Br)cc(-c2cnc(OCc3ccncc3)nn2)cc1Br [Compound 106, 2,6-dibromo-4-(3-(pyridin-4-ylmethoxy)-1,2,4-triazin-6-yl)phenol] | 18.1
Oc1c(Br)cc(-c2cnc(OC(c3cccc(C(F)(F)F)c3)c3cccc(C(F)(F)F)c3)nn2)cc1Br [Compound 109, 4-(3-(bis(3-(trifluoromethyl)phenyl)methoxy)-1,2,4-triazin-6-yl)-2,6-dibromophenol] | 12.2
Oc1c(Br)cc(-c2cnc(OCc3ccc(CN4CCOCC4)cc3)nn2)cc1Br [Compound 110, 2,6-dibromo-4-(3-(4-(morpholinomethyl)benzyloxy)-1,2,4-triazin-6-yl)phenol] | 12.9
Oc1c(Cl)cc(-c2cnc(OCc3cccc(Cl)c3Cl)nn2)cc1Cl [Compound 114, 2,6-dichloro-4-(3-(2,3-dichlorobenzyloxy)-1,2,4-triazin-6-yl)phenol] | 3.36
CN(C)c1cccc(COc2ncc(-c3cc(Cl)c(O)c(Cl)c3)nn2)c1 [Compound 119, 2,6-dichloro-4-(3-(3-(dimethylamino)benzyloxy)-1,2,4-triazin-6-yl)phenol] | 3.4
Oc1c(Cl)cc(-c2cnc(NCc3cccc(Cl)c3Cl)nn2)cc1Cl [Compound 121, 2,6-Dichloro-4-(3-(2,3-dichlorobenzylamino)-1,2,4-triazin-6-yl)phenol] | 13.1
Oc1c(Cl)cc(-c2cnc(OCCNc3ccccc3)nn2)cc1Cl [Compound 125, 2,6-dichloro-4-(3-(2-(phenylamino)ethoxy)-1,2,4-triazin-6-yl)phenol] | 25.8
O=C(c1cccc(C(F)(F)F)c1)N1CCN(Cc2cc(Cl)ccc2OCc2ncc(-c3cc(Br)c(O)c(Br)c3)nn2)CC1 [Compound 126, (4-(5-chloro-2-((6-(3,5-dibromo-4-hydroxyphenyl)-1,2,4-triazin-3-yl)methoxy)benzyl)piperazin-1-yl)(3-(trifluoromethyl)phenyl)methanone] | 5.44
Oc1c(Cl)cc(-c2cnc(OCc3ccccc3F)nn2)cc1Cl [Compound 127, 2,6-dichloro-4-(3-(2-fluorobenzyloxy)-1,2,4-triazin-6-yl)phenol] | 5.46
CC1(C)Cc2cccc(OCc3ncc(-c4cc(Br)c(O)c(Br)c4)nn3)c2O1 [Compound 128, 2,6-dibromo-4-(3-((2,2-dimethyl-2,3-dihydrobenzofuran-7-yloxy)methyl)-1,2,4-triazin-6-yl)phenol] | 28.8
Oc1c(Br)cc(-c2cnc(-c3cccc(Oc4ccccc4)c3)nn2)cc1Br [Compound 129, 2,6-dibromo-4-(3-(3-phenoxyphenyl)-1,2,4-triazin-6-yl)phenol] | 24.8
Oc1c(Br)cc(-c2cnc(Cc3cccc4ccccc34)nn2)cc1Br [Compound 130, 2,6-dibromo-4-(3-(naphthalen-1-ylmethyl)-1,2,4-triazin-6-yl)phenol] | 28.9
O=[N+]([O-])c1ccccc1SCc1ncc(-c2cc(Br)c(O)c(Br)c2)nn1 [Compound 131, 2,6-dibromo-4-(3-((2-nitrophenylthio)methyl)-1,2,4-triazin-6-yl)phenol] | 14.8
COc1ccc(CNc2ncc(-c3cc(Cl)c(O)c(Cl)c3)nn2)cc1 [Compound 132, 2,6-dichloro-4-(3-(4-methoxybenzylamino)-1,2,4-triazin-6-yl)phenol] | 12.1

Continued, values first:

IC50 [µM] | SMILES
0.17 | Oc1c(Br)cc(-c2cnc(OCCc3ccc(Cl)cc3)nn2)cc1Br [Compound 90, 2,6-dibromo-4-(3-(4-chlorophenethoxy)-1,2,4-triazin-6-yl)phenol]
0.64 | CC(C)(C)c1ccc(CCOc2ncc(-c3cc(Br)c(O)c(Br)c3)nn2)cc1 [Compound 93, 2,6-dibromo-4-(3-(4-tert-butylphenethoxy)-1,2,4-triazin-6-yl)phenol]
0.34 | Oc1c(Br)cc(-c2cnc(OCCc3ccccc3Cl)nn2)cc1Br [Compound 94, 2,6-dibromo-4-(3-(2-chlorophenethoxy)-1,2,4-triazin-6-yl)phenol]
0.61 | Oc1c(Br)cc(-c2cnc(OCCCc3ccc(Cl)cc3)nn2)cc1Br [Compound 95, 2,6-dibromo-4-(3-(3-(4-chlorophenyl)propoxy)-1,2,4-triazin-6-yl)phenol]
0.45 | COc1ccc(CCOc2ncc(-c3cc(Br)c(O)c(Br)c3)nn2)cc1 [Compound 97, 2,6-dibromo-4-(3-(4-methoxyphenethoxy)-1,2,4-triazin-6-yl)phenol]
0.3 | Cc1ccc(CCOc2ncc(-c3cc(Br)c(O)c(Br)c3)nn2)cc1 [Compound 98, 2,6-dibromo-4-(3-(4-methylphenethoxy)-1,2,4-triazin-6-yl)phenol]
0.26 | Oc1c(Br)cc(-c2cnc(OCCc3ccc(Cl)c(Cl)c3)nn2)cc1Br [Compound 99, 2,6-dibromo-4-(3-(3,4-dichlorophenethoxy)-1,2,4-triazin-6-yl)phenol]
0.44 | Oc1c(Br)cc(-c2cnc(OCc3cc(Br)cs3)nn2)cc1Br [Compound 107, 2,6-dibromo-4-(3-((4-bromothiophen-2-yl)methoxy)-1,2,4-triazin-6-yl)phenol]
1.18 | Oc1c(Br)cc(-c2cnc(OC3CCc4ccccc4C3)nn2)cc1Br (stereo not drawn) [Compound 108, 2,6-dibromo-4-(3-(1,2,3,4-tetrahydronaphthalen-2-yloxy)-1,2,4-triazin-6-yl)phenol]
1.89 | Oc1c(Cl)cc(-c2cnc(OC(Cc3ccccc3)c3ccccc3)nn2)cc1Cl (stereo not drawn) [Compound 111, 2,6-dichloro-4-(3-(1,2-diphenylethoxy)-1,2,4-triazin-6-yl)phenol]
0.17 | Oc1c(Cl)cc(-c2cnc(OCCc3ccc(Cl)cc3)nn2)cc1Cl [Compound 112, 2,6-dichloro-4-(3-(4-chlorophenethoxy)-1,2,4-triazin-6-yl)phenol]
1.3 | Oc1c(Cl)cc(-c2cnc(OCc3ccc(Cl)cc3)nn2)cc1Cl [Compound 113, 2,6-dichloro-4-(3-(4-chlorobenzyloxy)-1,2,4-triazin-6-yl)phenol]
0.35 | Oc1c(Cl)cc(-c2cnc(OCCc3cccc4ccccc34)nn2)cc1Cl [Compound 115, 2,6-dichloro-4-(3-(2-(naphthalen-1-yl)ethoxy)-1,2,4-triazin-6-yl)phenol]
1.89 | Oc1c(Cl)cc(-c2cnc(OCc3cccc4ccccc34)nn2)cc1Cl [Compound 116, 2,6-dichloro-4-(3-(naphthalen-1-ylmethoxy)-1,2,4-triazin-6-yl)phenol]
0.61 | Oc1c(Cl)cc(-c2cnc(OCCc3ccc(Br)cc3)nn2)cc1Cl [Compound 117, 4-(3-(4-bromophenethoxy)-1,2,4-triazin-6-yl)-2,6-dichlorophenol]
3.23 | Oc1c(Br)cc(-c2cnc(OCc3cnc(Br)s3)nn2)cc1Br [Compound 118, 2,6-dibromo-4-(3-((2-bromothiazol-5-yl)methoxy)-1,2,4-triazin-6-yl)phenol]
1.98 | Oc1c(Cl)cc(-c2cnc(OCCNCc3ccccc3)nn2)cc1Cl [Compound 124, 4-(3-(2-(benzylamino)ethoxy)-1,2,4-triazin-6-yl)-2,6-dichlorophenol]
